# Assay results taken from patent publication US12643867B2, “Compositions and uses thereof” (University of Virginia Patent Foundation, priority 2017, dated 2026).
# pIC50: −log10 of the molar value. Like-named read-outs stand apart in the source and are kept apart here.
# Target: T1, recombinant DGKα (Rattus norvegicus, UniProt P51556)
# T1 construct: expressed in transfected cells; host or cells: HEK293T (SILAC HEK293T for LC-MS)
# Assay: ADP-glo DAG phosphorylation substrate assay
# Assay type: biochemical
# Method: The ADP-Glo DAG phosphorylation substrate assay was adapted from Sato et al (Sato et al., 2013). Transfected HEK cells expressing recombinant FLAG-DGKA were harvested in DPBS and centrifuged at 1400×g for 3 min. Supernatant was removed and 1 mL Lysis Buffer (50 mM HEPES (pH 7.2), 150 mM NaCl, 5 mM MgCL2, 1 mM DTT, 1 mM phenylmethylsulfonyl […], Phosphatase Inhibitor Cocktail 2 (Sigma-Aldrich), and EDTA-Free Protease Inhibitor Mini Tablets (Pierce)) was added and cells re-suspended. Solutions were sonicated (3×1 sec pulse, 20% amplitude) and then centrifuged at 400×g for 5 min. Supernatant was separated and protein concentrations were measured using the Bio-Rad DC protein assay and diluted in Lysis Buffer as appropriate. Samples were stored at −80° C. until use.
# Micelles were prepared from lipid stocks as follows: Reaction Buffer (50 mM MOPS (pH 7.4). 1 mM DTT. 100 mM NaCl. 20 mM NaF, and |μM CaCl2)) was prepared in ddH2O. […] 1,2-dioleoyl-sn-glycerol (DG) and 1.2-dioleoyl-sn-glycero-3-phospho-L-serine (DOPS) in chloroform were mixed and then dried under nitrogen. Triton Buffer was added to the dried lipids to a final concentration of 10 mM DG and 8 mM DOPS. This solution was incubated at room temperature for 5 min with gentle shaking, followed by sonication (3×1 sec pulse, 20% amplitude). The micelles were then diluted 4-fold in reaction buffer to yield the final micelle buffer. […] of lysate was aliquoted into each well of a 96 well plate, followed by micelle buffer to a final volume of 20 μL. 19 μL of this mix was added to 1 μL of DMSO or inhibitor solution and incubated at 30° C. for 30 min. After incubation, 5 μL of reaction initiator was added to each well and mixed thoroughly, followed by aliquoting 5 μL of each reaction mixture to a 96-well half area black polystyrene plate and incubated at 30° C. for 30 min. At this point the procedure for the ADP-GloTM assay (Promega) was performed. 5 μL of ‘ADP-Glo Reagent’ was added to each well, mixed thoroughly, and allowed to incubate at 25° C. for 40 min. Then 10 μL of the ‘Kinase Detection Reagent’ was added to each well, mixed thoroughly, and allowed to incubate at 25° C. for 40 min. Luminescence was measured with no filter and an integration time of 1 sec per well on a BMG Labtech CLARIOstar plate reader.
# The percentage of enzyme activity remaining was determined by comparing integrated band intensities or luminescence of inhibitor—with DMSO-treated samples for gel-based chemical proteomic or ADP-glo assays, respectively. For both chemical proteomic and ADP-glo methods, nonlinear regression analysis was used to determine the IC50 values from a dose-response curve generated using GraphPad Prism. Data are shown as mean±s.e.m. Determination of significance was performed by one-way ANOVA. All statistical analyses were performed using GraphPad Prism.
# [1] = DGKα-HEK293T proteome, read-out: IC50, DGKα inhibition, DAG phosphorylation substrate assay
# [2] = read-out: 95% confidence intervals for IC50 values, substrate assay
# T1 sequence (P51556 whole entry): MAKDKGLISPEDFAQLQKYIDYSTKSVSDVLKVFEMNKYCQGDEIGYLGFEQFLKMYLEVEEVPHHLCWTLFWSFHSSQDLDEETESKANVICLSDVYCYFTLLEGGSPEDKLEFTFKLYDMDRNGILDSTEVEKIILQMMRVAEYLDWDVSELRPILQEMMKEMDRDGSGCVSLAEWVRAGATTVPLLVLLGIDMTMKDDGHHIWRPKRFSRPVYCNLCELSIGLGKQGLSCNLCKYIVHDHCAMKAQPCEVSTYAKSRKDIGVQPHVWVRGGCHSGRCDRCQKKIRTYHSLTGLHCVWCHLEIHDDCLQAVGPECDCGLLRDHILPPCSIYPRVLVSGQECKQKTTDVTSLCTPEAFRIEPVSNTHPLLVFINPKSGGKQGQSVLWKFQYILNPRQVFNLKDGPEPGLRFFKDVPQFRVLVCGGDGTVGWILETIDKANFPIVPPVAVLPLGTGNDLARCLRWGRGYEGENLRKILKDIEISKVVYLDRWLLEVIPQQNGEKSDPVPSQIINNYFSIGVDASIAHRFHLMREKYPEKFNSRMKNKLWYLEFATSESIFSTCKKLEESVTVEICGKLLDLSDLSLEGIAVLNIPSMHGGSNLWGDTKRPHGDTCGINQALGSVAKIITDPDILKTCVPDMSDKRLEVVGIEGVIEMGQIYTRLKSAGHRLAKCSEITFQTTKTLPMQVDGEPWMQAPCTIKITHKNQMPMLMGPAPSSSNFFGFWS
activity against DGKα in the substrate assay (100 μM),SMILES,blockade of recombinant DGKα activity (100 μM compound) [%],"blockade of DGKα activity (100 μM, from substrate- and chemical proteomic-assays) [%]",pIC50 [1],pIC50 [2]
–,Cc1nc2sccn2c(=O)c1CCN1CCC(=C(c2ccc(F)cc2)c2ccc(F)cc2)CC1 [Ritanserin],~80,~70,4.60,4.52 to 4.70
–,"Fc1ccc(C(=C2CCNCC2)c2ccc(F)cc2)cc1 [RF001, 4-(Bis(4-fluorophenyl)methylene) piperidine]",–,–,3.65,3.38 to 3.92
negligible activity,O=C(c1ccc(F)cc1)C1CCN(CCn2c(=O)[nH]c3ccccc3c2=O)CC1 [Ketanserin],–,–,–,–
